From ChEMBL document CHEMBL1955725, “Structure-guided lead optimization of triazolopyrimidine-ring substituents identifies potent Plasmodium falciparum dihydroorotate dehydrogenase inhibitors with clinical candidate potential” (J Med Chem, 2011)

How the values were obtained:
[1] = target: T1, Dihydroorotate dehydrogenase (Plasmodium falciparum, UniProt Q54A96)
T1 sequence (Q54A96 whole entry): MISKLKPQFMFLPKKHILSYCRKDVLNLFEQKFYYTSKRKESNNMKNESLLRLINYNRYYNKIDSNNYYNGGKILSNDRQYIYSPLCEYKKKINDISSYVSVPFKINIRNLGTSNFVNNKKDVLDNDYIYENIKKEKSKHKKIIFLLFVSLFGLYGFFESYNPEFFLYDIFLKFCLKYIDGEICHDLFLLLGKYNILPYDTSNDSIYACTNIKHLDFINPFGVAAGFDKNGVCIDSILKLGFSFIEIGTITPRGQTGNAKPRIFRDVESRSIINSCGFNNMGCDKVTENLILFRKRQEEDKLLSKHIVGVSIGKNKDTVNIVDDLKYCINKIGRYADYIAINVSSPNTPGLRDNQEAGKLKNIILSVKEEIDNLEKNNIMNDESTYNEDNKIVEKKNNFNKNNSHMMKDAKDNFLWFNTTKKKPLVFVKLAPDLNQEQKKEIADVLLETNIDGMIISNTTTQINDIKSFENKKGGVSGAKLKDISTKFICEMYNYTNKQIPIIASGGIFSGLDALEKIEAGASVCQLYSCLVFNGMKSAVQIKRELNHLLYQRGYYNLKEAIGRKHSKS
Description: Inhibition of Plasmodium falciparum C-terminal hexa-His tagged DHODH expressed in Escherichia coli by DCIP reduction assay

[2] = Cmax in Swiss outbred mouse at 0.4 mg/kg, po; assay type: ADME, organism-based; set-up: dose 0.4 mg/kg, route oral; conditions: in vivo
in vivo = conditions: NOD-SCID IL-2Rgamma-null, mouse, po, 5.7 mg/kg
Mus musculus = experiment: AUC (0 to 48 hrs) in Swiss outbred mouse plasma at 50 mg/kg, po; assay type: ADME, organism-based; set-up: time < 48 hr, dose 50 mg/kg, route oral; conditions: in vivo
[3] = Volume of distribution in Sprague-Dawley rat at 1 mg/kg, iv; assay type: ADME, organism-based; set-up: dose 1 mg/kg, route intravenous; conditions: in vivo
Plasmodium falciparum = experiment: Antimalarial activity against chloroquine-resistant Plasmodium falciparum Dd2 by [3H]hypoxanthine incorporation assay in presence of human serum; assay type: functional, organism-based

With `Cc1cc(Nc2ccc(C(F)(F)F)cc2)n2nc(C(C)(F)F)nc2n1` the IC50 [1] was 38 nM, the Cmax [2] was 200 nM and the Tmax (in vivo) was 2.7 h. For the same molecule, the AUC (Mus musculus) was 14815 µM·min, the Vd [3] was 3.3 L/kg and the EC50 (Plasmodium falciparum) was 13 nM.
